Experimental data from PubChem BioAssay AID2060485 (Molecular Pharmacology Branch, DTP, NCI, 2025).

System: A375 multi-cell spheroids with HUVEC/MSC, viability
Assay: Anticancer human tumor A375 cell line growth inhibition [GQUAD];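 note: spheroids exposed to compounds for seven days before readout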
Details: for IC50: curve of first compound; for viability, T/C: stronger effect = lower value; active = viability on the fitted dose curve at most 10% of control; inactive = the rest
Source text: DNA G-quadruplex Stabilizer Agents in Combinations in Complex Spheroids
A high-throughput screen of multi-cell type tumor spheroids was designed to identify active combinations of DNA G-quadruplex stabilizer agents and targeted small molecules. Complex spheroids include a stromal component modeled by human endothelial cells (HUVEC) and fibroblasts modeled by human mesenchymal stem cells (MSCs). The concentration ranges selected for each drug and investigational agent were based upon clinically achievable concentrations if the clinical Cmax of the agent was known.
Compounds. The drugs and investigational agents: pidnarulex (CX-5461; NSC782164), APTO-253 (NSC789042), BRACO-19 (NSC847499), peposertib (NSC802822), ceralasertib (NSC780249), elimusertib (NSC800525), camonsertib (NSC841442), AZD-1390 (NSC803789), olaparib (NSC753686), talazoparib (NSC767125), ART-558 (NSC835418), sotorasib (NSC818433), MRTX-1133 (NSC836407), SN-38 (NSC673596), topotecan (NSC609699), etoposide (NSC141540), doxorubicin (NSC123127), gemcitabine (NSC613327), 5-fluorouracil (NSC19893), paclitaxel (NSC125973), vemurafenib (NSC761431), panobinostat (NSC761190), R-306465 (JNJ-16241199; NSC773264), adavosertib (NSC754352), TP-3654 (NSC805149), carboplatin (NSC241240), KSQ-4279 (NSC840948), and staurosporine (NSC755774) were obtained from the National Cancer Institute (NCI) Developmental Therapeutics Program Chemical Repository (34). The FDA-approved anticancer drug set is available from the NCI Developmental Therapeutics Program. […] The stock solutions were prepared in dimethyl sulfoxide (DMSO, Sigma-Aldrich, St. Louis, MO, cat. D2650) at 800-fold the tested concentration and stored at -70 degrees C prior to their use. All drugs and investigational agents were tested over a range starting from a high concentration at or near the clinical Cmax and decreasing in half-log increments. If the clinical Cmax for an agent had not been determined, the highest concentration tested was 10 microM.
2.3 Cell Culture. All cells were maintained in an incubator at 37 degrees C and 5% CO2 with 95% humidity. The PDC lines were cultured according to standard operating procedures established by the NCI PDMR. All PDCs were thawed and cultured in Matrigel-coated flasks prepared with a working solution of 1X Ham's F-12 nutrient mix, without supplementation (Invitrogen, cat. 11765054), 100 U/mL penicillin-streptomycin (Invitrogen, cat. 15140122), and 2.5% Matrigel (Corning Inc., cat. 354248) for the first three passages. The 857933-349-R-J2-PDC line was cultured in 6C/Colon 1B media, which includes advanced DMEM/F-12 (Thermo Fisher Scientific, cat. 12634028), 10 mM HEPES (Thermo Fisher Scientific, cat. 15630080), 1X GlutaMAX supplement (Thermo Fisher Scientific, cat. 35050061), 0.1 mg/mL primocin (InvivoGen, cat. ant-pm-2), 10% defined fetal bovine serum, heat inactivated (HyClone Laboratories Inc., cat. SH30070.03HI), 50% L-WRN conditioned media (ATCC, cat. CRL-3276), 1.25 mM N-Acetyl-L-cysteine (Sigma-Aldrich, cat. A9165), 10 mM nicotinamide (Sigma-Aldrich, cat. N0636), 1X B-27 supplement (Thermo Fisher Scientific, cat. 17504044), 1X N-2 supplement (Thermo Fisher Scientific, cat. 17502048), 10 microM Y-27632 dihydrochloride (Tocris Bioscience, cat. 1254), and 50 ng/mL human EGF recombinant protein (Thermo Fisher Scientific, cat. PHG0311). The 485176-168-R4-J1-PDC line was cultured in Panc media, which includes all 6C/Colon 1B media components plus 100 ng/mL human FGF-10 (Thermo Fisher Scientific, cat. 100-26), 500 nM SB-431542 (Selleckchem, cat. S1067), and gastrin (Tocris, cat. 3006).
[…]

[1] = second compound 0.0316 µM, first compound 0.000999 µM
[2] = second compound 0.0316 µM, first compound 0.00316 µM
[3] = second compound 0.0316 µM, first compound 0.00999 µM
[4] = second compound 0.0316 µM, first compound 0.0316 µM
[5] = second compound 0.0316 µM, first compound 0.0999 µM
[6] = second compound 0.0316 µM, first compound 0.316 µM
[7] = second compound 0.1 µM, first compound 0.000999 µM
[8] = second compound 0.1 µM, first compound 0.00316 µM
[9] = second compound 0.1 µM, first compound 0.00999 µM
[10] = second compound 0.1 µM, first compound 0.0316 µM
[11] = second compound 0.1 µM, first compound 0.0999 µM
[12] = second compound 0.1 µM, first compound 0.316 µM
[13] = second compound 0.316 µM, first compound 0.000999 µM
[14] = second compound 0.316 µM, first compound 0.00316 µM
[15] = second compound 0.316 µM, first compound 0.00999 µM
[16] = second compound 0.316 µM, first compound 0.0316 µM
[17] = second compound 0.316 µM, first compound 0.0999 µM
[18] = second compound 0.316 µM, first compound 0.316 µM
[19] = second compound 1 µM, first compound 0.000999 µM
[20] = second compound 1 µM, first compound 0.00316 µM
[21] = second compound 1 µM, first compound 0.00999 µM
[22] = second compound 1 µM, first compound 0.0316 µM
[23] = second compound 1 µM, first compound 0.0999 µM
[24] = second compound 1 µM, first compound 0.316 µM
[25] = second compound 3.16 µM, first compound 0.000999 µM
[26] = second compound 3.16 µM, first compound 0.00316 µM
[27] = second compound 3.16 µM, first compound 0.00999 µM
[28] = second compound 3.16 µM, first compound 0.0316 µM
[29] = second compound 3.16 µM, first compound 0.0999 µM
[30] = second compound 3.16 µM, first compound 0.316 µM
[31] = second compound 10 µM, first compound 0.000999 µM
[32] = second compound 10 µM, first compound 0.00316 µM
[33] = second compound 10 µM, first compound 0.00999 µM
[34] = second compound 10 µM, first compound 0.0316 µM
[35] = second compound 10 µM, first compound 0.0999 µM
[36] = second compound 10 µM, first compound 0.316 µM

CCc1c2c(nc3ccc(O)cc13)-c1cc3c(c(=O)n1C2)COC(=O)[C@]3(O)CC + Cc1[nH]c2ccc(F)cc2c1-c1nc2c3cccnc3c3ncccc3c2[nH]1
active: viability, T/C [5] 4.81% | viability, T/C [6] 0.52% | viability, T/C [10] 16.9% | viability, T/C [11] 5.44% | viability, T/C [12] 0.54% | viability, T/C [16] 19.5% | viability, T/C [17] 5.75% | viability, T/C [18] 0.54% | viability, T/C [23] 5.26% | viability, T/C [24] 0.53% | viability, T/C [28] 11% | viability, T/C [29] 0.47% | viability, T/C [30] 0.17% | viability, T/C [34] 14.1% | viability, T/C [35] 1.7% | viability, T/C [36] 0.25%
inactive: viability, T/C [1] 46% | viability, T/C [2] 20% | viability, T/C [3] 16.8% | viability, T/C [4] 19.7% | viability, T/C [7] 50.3% | viability, T/C [8] 20.4% | viability, T/C [9] 14.7% | viability, T/C [13] 47.8% | viability, T/C [14] 18.3% | viability, T/C [15] 15.2% | viability, T/C [19] 41.1% | viability, T/C [20] 20.4% | viability, T/C [21] 18.4% | viability, T/C [22] 16.4% | viability, T/C [25] 32% | viability, T/C [26] 20.9% | viability, T/C [27] 17.6% | viability, T/C [31] 39.4% | viability, T/C [32] 17.6% | viability, T/C [33] 17.1%
< 0.999 nM: IC50 (second compound 0.0316 µM) | IC50 (second compound 0.1 µM) | IC50 (second compound 0.316 µM) | IC50 (second compound 1 µM) | IC50 (second compound 3.16 µM) | IC50 (second compound 10 µM)

CC[C@@]1(O)C(=O)OCc2c1cc1n(c2=O)Cc2cc3c(CN(C)C)c(O)ccc3nc2-1 + CN(C)c1ccc(Nc2c3ccc(NC(=O)CCN4CCCC4)cc3nc3cc(NC(=O)CCN4CCCC4)ccc23)cc1
active: viability, T/C [12] 10.9% | viability, T/C [24] 9.06%
44.7 nM: IC50 (second compound 0.0316 µM)
49.5 nM: IC50 (second compound 3.16 µM)
45.3 nM: IC50 (second compound 0.1 µM)
47.4 nM: IC50 (second compound 1 µM)
39.6 nM: IC50 (second compound 0.316 µM)
inactive: viability, T/C [1] 104% | viability, T/C [2] 107% | viability, T/C [3] 104% | viability, T/C [4] 63.4% | viability, T/C [5] 18.5% | viability, T/C [6] 9.04% | viability, T/C [7] 112% | viability, T/C [8] 105% | viability, T/C [9] 96.2% | viability, T/C [10] 64.2% | viability, T/C [11] 20.4% | viability, T/C [13] 101% | viability, T/C [14] 107% | viability, T/C [15] 108% | viability, T/C [16] 58% | viability, T/C [17] 19.8% | viability, T/C [18] 10.9% | viability, T/C [19] 114% | viability, T/C [20] 106% | viability, T/C [21] 102% | viability, T/C [22] 67% | viability, T/C [23] 18.9% | viability, T/C [25] 103% | viability, T/C [26] 102% | viability, T/C [27] 102% | viability, T/C [28] 68.8% | viability, T/C [29] 20.6% | viability, T/C [30] 12.7% | viability, T/C [31] 102% | viability, T/C [32] 103% | viability, T/C [33] 107% | viability, T/C [34] 63.2% | viability, T/C [35] 22.4% | viability, T/C [36] 9.58%
45.9 nM: IC50 (second compound 10 µM)
